“Also recorded” adds a separate entry of the source. Read-outs that look alike come from different tables or passages of the source.
Legend:
[1] = target: recombinant GABABR1a receptors; settings: read-out: COS 1 cells IC50, inhibition of [125I]CGP 64213 binding
Experimental: In order to isolate membranes containing the cloned GABAB receptor, culture dishes containing GABAB receptor-expressing COS cells are washed twice with Krebs-Henseleit-Tris buffer. Afterwards the cells are scraped off the dishes, homogenised in a glass-glass homogeniser and centrifuged for 30 min at 4°C at 40'000 g. The homogenisation and centrifugation step is repeated once. The pellet is resuspended in buffer and stored in liquid nitrogen until further analysis.

GABAB receptors = settings: inhibition of [125I]CGP 64213 binding, native receptors; read-out: Rat cerebral cortex IC50
Experimental: The animals are decapitated, the brains removed, the cerebral cortices dissected and homogenised in 10 volumes of ice-cold 0.32 M sucrose, containing MgCl2 (1 mM) and K2HPO4 (1 mM), with a glass/Teflon homogeniser. The membranes are centrifuged at 1000 x g for 15 min, the pellet resuspended and the centrifugation repeated. The supernatants are pooled and centrifuged at 20000 x g for 15 min. The pellet is osmotically shocked by resuspension in 10 volumes H2O and kept on ice for 30 min. […] The membranes are thawed at room temperature, washed three times with Krebs-Henseleit buffer by centrifugation at 20000 x g for 15 min, left overnight at 4°C and washed again three times. The final pellet is resuspended with a glass/Teflon homogenise in 20 ml of the same buffer. 2 ml aliquots are frozen and stored in liquid nitrogen. Just before use membranes are thawed quickly in a water bath at 37°C and again washed by centrifugation at 20000 x g for 15 min with the same buffer three times.
The incubation is terminated by filtration through GF/B Whatman glass fibre filters.

[2] = tested on: non-transfected HEK293 cells; assay: Forskolin-stimulated cAMP formation in non-transfected HEK293 cells (control); assay type: cell-based; settings: untransfected HEK293 cells
Experimental: • Figure 1 a depicts the expression of the recombinant GABABR1a receptor in COS1 cells. […]. Autoradiography of a 6% SDS gel with 25µg protein loaded per lane is shown. […]. The apparent molecular weight of native and recombinant GABAB receptors are estimated from gel mobilities relative to those of SDS-PAGE standards (BioRad). […]. Cell membranes of the tissues indicated are photoaffinity-labelled with [[…] and subjected to SDS-PAGE and autoradiography. a, b, Selectivity of the photoaffinity ligand [[…]. a, Differential distribution of GABAB receptor variants of 130K and 100K in tissues of the nervous system. […]. Incubation of membrane extracts with the photoaffinity ligand is carried out in the presence of competitor substances at the concentrations indicated, c, GABAB receptors are N-glycosylated. Photoaffinity-labelled rat cortex cell membranes are incubated with 0.4 units N-glycosidase F or 0.6 milliunits O-glycosidase (Boehringer Mannheim). d, Photolabelling of GABAB receptors from different species. […]
GABAB receptors are described to inhibit adenylate cyclase activity, stimulate phospholipase A2, activate K^+-channels, inactivate voltage-dependent Ca^2+-channels and to modulate inositol phospholipid hydrolysis. […] The ability of GABABR1a stably expressed in HEK293 cells to reduce forskolin-stimulated CAMP accumulation is analysed (Fig. 5). […]

[3] = tested on: rat cortical slice preparations; settings: cited from earlier work
GABABR1a = target: T1, GABABR1a (Rattus norvegicus, UniProt Q9Z0U4); assay: Forskolin-stimulated cAMP accumulation in HEK293 cells stably expressing GABABR1a; assay type: cell-based; settings: 10 µM antagonist, 300 µM L-baclofen
T1 construct: either the full-length cDNA clones disclosed herein or fragments thereof can be used as probes; expressed in transfected cells
T1 sequence (Q9Z0U4 20-960): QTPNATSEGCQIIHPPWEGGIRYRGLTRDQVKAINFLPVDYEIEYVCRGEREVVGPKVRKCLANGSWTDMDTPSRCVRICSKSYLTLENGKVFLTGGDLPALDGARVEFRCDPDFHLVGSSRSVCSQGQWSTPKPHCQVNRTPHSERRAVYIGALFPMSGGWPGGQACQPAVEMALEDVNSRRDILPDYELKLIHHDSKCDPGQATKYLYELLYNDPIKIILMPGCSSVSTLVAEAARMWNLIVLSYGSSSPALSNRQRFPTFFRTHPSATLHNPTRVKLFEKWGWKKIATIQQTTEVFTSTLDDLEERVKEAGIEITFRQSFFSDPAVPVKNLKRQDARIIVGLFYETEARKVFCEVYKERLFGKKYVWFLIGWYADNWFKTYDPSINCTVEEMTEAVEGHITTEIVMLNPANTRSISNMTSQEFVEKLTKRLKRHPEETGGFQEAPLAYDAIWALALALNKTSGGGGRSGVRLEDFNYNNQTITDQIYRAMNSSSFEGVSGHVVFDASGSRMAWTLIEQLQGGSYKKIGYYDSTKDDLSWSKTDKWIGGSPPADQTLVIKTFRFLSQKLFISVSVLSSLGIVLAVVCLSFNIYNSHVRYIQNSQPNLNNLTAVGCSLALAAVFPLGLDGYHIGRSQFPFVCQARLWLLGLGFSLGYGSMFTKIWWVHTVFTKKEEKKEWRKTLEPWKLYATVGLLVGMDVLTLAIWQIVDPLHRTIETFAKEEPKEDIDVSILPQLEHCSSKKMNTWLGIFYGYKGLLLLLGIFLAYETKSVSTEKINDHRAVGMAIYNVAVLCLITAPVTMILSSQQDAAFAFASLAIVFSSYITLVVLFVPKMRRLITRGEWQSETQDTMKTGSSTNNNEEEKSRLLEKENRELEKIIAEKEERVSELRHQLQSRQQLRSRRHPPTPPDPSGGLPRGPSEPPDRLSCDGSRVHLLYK
Text: GABAB receptors are described to inhibit adenylate cyclase activity, stimulate phospholipase A2, activate K^+-channels, inactivate voltage-dependent Ca^2+-channels and to modulate inositol phospholipid hydrolysis. As GABABR1a and -b have identical sequence in all domains predicted to be intracellular they are expected to be able to couple to the same effector systems. […] We chose concentrations of forskolin and L-baclofen that should produce a maximal effect.

native GABAB receptors = assay: Photoaffinity labelling of membranes with [125I]CGP 71872 in the presence of competitor substances; assay type: binding, rat
Experimental: The incubation is terminated by centrifugation at 20 000 x g for 10 min at 4°C. This step removed free unbound photoaffinity label. […] The suspension is centrifuged at 20 000 x g for 10 min and resuspended at a concentration of 8mg/ml protein in buffer. […] The labelled membranes could be stored at -80°C.
Furthermore, native GABAB receptors are photoaffinity-labelled in the presence of various competitor substances indicated in Figure 4b.

In the case of `NCCCP(=O)(O)C(F)F` [CGP 47656], the IC50 [1] is reported as 12.3 µM and the IC50 (GABAB receptors) is reported as 0.28 µM.

For `NC[C@H](CC(=O)O)c1ccc(Cl)cc1` [L-baclofen], the “inhibition of forskolin-stimulated cAMP formation” value [2] is listed as “No L-baclofen response; also recorded: does not inhibit” and the “reduction of forskolin-stimulated cAMP accumulation” value [3] is listed as “about 40%”.

In the case of `C[C@H](NC[C@H](O)CP(=O)(O)CC1CCCCC1)c1ccc(Cl)c(Cl)c1` [CGP 54626A], the “effect on the L-baclofen inhibition of forskolin-stimulated cAMP accumulation” value (GABABR1a) is reported as “antagonised”, the “[125I]CGP 71872 labelling in the presence of excess unlabelled antagonist” value (native GABAB receptors) is reported as “no radioactivity is bound to the membranes” and the “[125I]CGP 71872 labelling in the presence of excess unlabelled antagonist” value (native GABAB receptors; listed as CGP54626A) is reported as “inhibited”.

Reference: EP0907731B1, “METABOTROPIC GABA(B) RECEPTORS, RECEPTOR-SPECIFIC LIGANDS AND THEIR USES” (Novartis AG, priority 1996, dated 1997)
